Patent US11691972B2, “Compounds for targeted degradation of BRD9” (C4 Therapeutics, Inc., priority 2020, dated 2023)

target: T1, BRD9 (Homo sapiens, UniProt Q9H8M2); experiment: HiBiT BRD9 degradation assay in 293T.166 (BRD9-HiBiT) cells; format: cell-based; parameters: endogenously expressing BRD9 with HiBiT fusion tag via CRISPR; host or cells: 293T.166 (BRD9-HiBiT), also expressing LgBiT ectopically; details: Table 1; 293T.166 cells, 2.0 hours; class symbols; read-out: HiBiT-Degradation 293T.166 BRD9 2.0 hours (DC50)
T1 sequence (Q9H8M2 1-597): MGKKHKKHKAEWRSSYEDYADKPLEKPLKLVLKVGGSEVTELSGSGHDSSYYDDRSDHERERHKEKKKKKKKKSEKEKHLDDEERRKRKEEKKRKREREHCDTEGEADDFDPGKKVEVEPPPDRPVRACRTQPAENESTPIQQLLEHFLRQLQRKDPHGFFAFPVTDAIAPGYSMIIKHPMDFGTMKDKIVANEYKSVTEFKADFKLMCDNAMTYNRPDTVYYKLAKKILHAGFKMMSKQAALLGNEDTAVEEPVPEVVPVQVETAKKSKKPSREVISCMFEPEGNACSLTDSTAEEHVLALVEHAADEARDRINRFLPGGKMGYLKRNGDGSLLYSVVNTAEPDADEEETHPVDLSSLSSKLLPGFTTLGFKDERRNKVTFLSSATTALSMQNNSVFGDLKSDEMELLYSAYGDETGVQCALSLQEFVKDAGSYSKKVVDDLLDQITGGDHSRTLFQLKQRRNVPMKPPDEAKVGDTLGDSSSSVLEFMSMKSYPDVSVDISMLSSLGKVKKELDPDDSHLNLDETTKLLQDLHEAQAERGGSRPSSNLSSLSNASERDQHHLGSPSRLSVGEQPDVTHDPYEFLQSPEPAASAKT
Outline: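 Luminescence from the Nano-Glo HiBiT lytic reagent quantified BRD9 loss after compounds (top 10 μM, half-log, 11 points, duplicates) were incubated 2 h at 37° C. with 10,000 293T.166 BRD9-HiBiT/LgBiT cells per well, with controls lacking compound or lacking reagent.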

| DC50 [nM] | SMILES |
| --- | --- |
| < 100 | COc1cc(-c2cn(C)c(=O)c3cnccc23)cc(F)c1CN1CCC(N2CCN(c3ccc(NC4CCC(=O)NC4=O)cc3F)CC2)C(F)(F)C1 (centres unmarked) [Compound 189] |
| < 100 | COc1cc(-c2cn(C)c(=O)c(C)c2C)cc(OC)c1CN1CCc2c(CC3CCN(c4ccc(NC5CCC(=O)NC5=O)cc4C(F)(F)F)CC3)cccc2C1 (centres unmarked) [Compound 108] |
| < 100 | COc1cc(-c2cn(C)c(=O)c3cnccc23)cc(OC)c1CN1CCN(C(=O)CC2CCN(c3ccc(NC4CCC(=O)NC4=O)cc3C(F)(F)F)CC2)CC12CC2 (centres unmarked) [Compound 59] |
| < 100 | COc1cc(-c2cn(C)c(=O)c3cnccc23)cc(Cl)c1CN1CCC(C2CCN(c3ccc(NC4CCC(=O)NC4=O)cc3C(F)(F)F)CC2)CC1 (centres unmarked) [Compound 83, 3-[4-[4-[1-[[2-chloro-6-methoxy-4-(2-methyl-1-oxo-2,7-naphthyridin-4-yl)phenyl]methyl]-4-piperidyl]-1-piperidyl]-3-(trifluoromethyl)anilino]piperidine-2,6-dione] |
| < 100 | COc1cc(-c2cn(C)c(=O)c3[nH]ncc23)cc(OC)c1CN1CCN(C(=O)CC2CCN(c3ccc(NC4CCC(=O)NC4=O)cc3C(F)(F)F)CC2)C(C)(C)C1 (centres unmarked) [Compound 57] |
| < 100 | COc1cc(-c2cn(C)c(=O)c3ccccc23)cc(OC)c1CN1C2CCC1CN(C(=O)CC1CCN(c3ccc(NC4CCC(=O)NC4=O)cc3C(F)(F)F)CC1)C2 (centres unmarked) [Compound 64] |
| < 100 | COc1cc(-c2cn(C)c(=O)c(C)c2C)cc(OC)c1C=C1CCN(C(=O)CC2CCN(c3ccc(NC4CCC(=O)NC4=O)cc3F)CC2)CC1 (centres unmarked) [Compound 162] |
| < 100 | Cn1cc(-c2ccc(CN3CCC(C4CCN(c5ccc(NC6CCC(=O)NC6=O)cc5F)CC4)CC3)c(OC(F)(F)F)c2)c2ccncc2c1=O (centres unmarked) [Compound 79] |
| < 100 | COc1cc(-c2cn(C)c(=O)c(C)c2C)cc(OC)c1C(=O)N1CCc2c(CC3CCN(c4ccc(NC5CCC(=O)NC5=O)cc4C(F)(F)F)CC3)cccc2C1 (centres unmarked) [Compound 238] |
| < 100 | COc1cc(-c2cn(C)c(=O)c3cnccc23)cc(Cl)c1CN1CCC(C2CCN(c3ccc(NC4CCC(=O)NC4=O)cc3F)CC2)CC1 (centres unmarked) [Compound 78] |
| < 100 | COc1cc(-c2cn(C)c(=O)c3[nH]ncc23)cc(OC)c1CN1CCc2c(CC3CCN(c4ccc(NC5CCC(=O)NC5=O)cc4F)CC3)cccc2C1 (centres unmarked) [Compound 106] |
| < 100 | COc1cc(-c2cn(C)c(=O)c3cnccc23)cc(Cl)c1CN1CCC(C2CCN(c3ccc(NC4CCC(=O)NC4=O)cc3Cl)CC2)C(F)(F)C1 (centres unmarked) [Compound 200] |
| < 100 | COc1cc(-c2cn(C)c(=O)c3cnccc23)cc(Cl)c1CN1CCC(N2CCN(c3ccc(NC4CCC(=O)NC4=O)cc3F)CC2)C(F)(F)C1 (single isomer, unassigned) [Compound 178, 3-[4-[4-[1-[[2-chloro-6-methoxy-4-(2-methyl-1-oxo-2,7-naphthyridin-4-yl)phenyl]methyl]-3,3-difluoro-4-piperidyl]piperazin-1-yl]-3-fluoro-anilino]piperidine-2,6-dione] |

The next lines start with the molecule.

| SMILES | DC50 [nM] |
| --- | --- |
| COc1cc(-c2cn(C)c(=O)c3[nH]ncc23)cc(OC)c1CNC1CCN(CC(=O)N2CCC(c3ccc(NC4CCC(=O)NC4=O)cc3)CC2)CC1 (centres unmarked) [Compound 39] | < 100 |
| CN(C(=O)N1CCC(c2ccc(NC3CCC(=O)NC3=O)cc2F)CC1)C1CCN(C(=O)c2ccc(-c3cn(C)c(=O)c4cc(F)ccc34)cc2OC(F)(F)F)CC1 (centres unmarked) [Compound 141] | < 100 |
| COc1cc(-c2cn(C)c(=O)c(C)c2C)cc(Cl)c1CN1CCC(C2CCN(c3ccc(NC4CCC(=O)NC4=O)cc3F)CC2)C(F)(F)C1 (centres unmarked) [Compound 197, 3-[4-[4-[1-[[2-chloro-6-methoxy-4-(1,4,5-trimethyl-6-oxo-3-pyridyl)phenyl]methyl]-3,3-difluoro-4-piperidyl]-1-piperidyl]-3-fluoro-anilino]piperidine-2,6-dione] | < 100 |
| COc1cc(-c2cn(C)c(=O)c3[nH]ncc23)cc(Cl)c1CN1CCN(C(=O)CN2CCC(c3ccc(NC4CCC(=O)NC4=O)cc3)CC2)CC1 (centres unmarked) [Compound 12] | < 100 |
| COc1cc(-c2cn(C)c(=O)c3[nH]ncc23)cc(F)c1CN1CCN(C(=O)CN2CCC(c3ccc(NC4CCC(=O)NC4=O)cc3)CC2)CC1 (centres unmarked) [Compound 9] | < 100 |
| COc1cc(-c2cn(C)c(=O)c(C)c2C)cc(F)c1CN1CCC(N2CCN(c3ccc(NC4CCC(=O)NC4=O)cc3F)CC2)C(F)(F)C1 (centres unmarked) [Compound 191] | < 100 |
| COc1cc(-c2cn(C)c(=O)c3[nH]ncc23)cc(OC)c1CN1CCN(C(=O)CN2CC(c3ccc(NC4CCC(=O)NC4=O)cc3)C2)CC1 (centres unmarked) [Compound 32] | < 100 |
| COc1cc(-c2cn(C)c(=O)c3[nH]ncc23)cc(Cl)c1CN1CCC(CC(=O)N2CCC(c3ccc(NC4CCC(=O)NC4=O)cc3)CC2)C(F)(F)C1 (single isomer, unassigned) [Compound 204] | < 100 |
| COc1cc(-c2cn(C)c(=O)c(C)c2C)cc(Cl)c1C=C1CCN(C(=O)CC2CCN(c3ccc(NC4CCC(=O)NC4=O)cc3F)CC2)CC1 (centres unmarked) [Compound 163] | < 100 |
| COc1cc(-c2cn(C)c(=O)c(C)c2C)cc(Cl)c1CN1CCC(F)(C2CCN(c3ccc(NC4CCC(=O)NC4=O)cc3F)CC2)CC1 (centres unmarked) [Compound 245] | < 100 |
| COc1cc(-c2cn(C)c(=O)c(C)c2C)cc(Cl)c1C(=O)N1CCC(N(C)C(=O)N2CCC(c3ccc(NC4CCC(=O)NC4=O)cc3F)CC2)CC1 (centres unmarked) [Compound 140] | < 100 |
| COc1cc(-c2cn(C)c(=O)c3[nH]ncc23)cc(OC)c1CN1CCc2c(CN3CCC(c4ccc(NC5CCC(=O)NC5=O)cc4)CC3)cccc2C1 (centres unmarked) [Compound 98] | < 100 |
| COc1cc(-c2cn(C)c(=O)c(C)c2C)cc(OC)c1CN1CCC(N2CCN(c3ccc(NC4CCC(=O)NC4=O)cc3F)CC2)C(F)(F)C1 (single isomer, unassigned) [Compound 175, 3-[4-[4-[1-[[2,6-dimethoxy-4-(1,4,5-trimethyl-6-oxo-3-pyridyl)phenyl]methyl]-3,3-difluoro-4-piperidyl]piperazin-1-yl]-3-fluoro-anilino]piperidine-2,6-dione] | < 100 |
| COc1cc(-c2cn(C)c(=O)c3[nH]ncc23)cc(OC)c1CN1CCN(C(=O)CN2CCC(c3c(F)cc(NC4CCC(=O)NC4=O)cc3F)CC2)CC1 (centres unmarked) [Compound 17] | < 100 |
| COc1cc(-c2cn(C)c(=O)c(C)c2C)cc(OC)c1CN1CCC(N2CCN(c3ccc(NC4CCC(=O)NC4=O)cc3F)CC2)C(F)(F)C1 (single isomer, unassigned) [Compound 174, 3-[4-[4-[1-[[2,6-dimethoxy-4-(1,4,5-trimethyl-6-oxo-3-pyridyl)phenyl]methyl]-3,3-difluoro-4-piperidyl]piperazin-1-yl]-3-fluoro-anilino]piperidine-2,6-dione] | < 100 |
| COc1cc(-c2cn(C)c(=O)c3[nH]ncc23)cc(Cl)c1CN1CCc2c(cccc2NC2CCN(c3ccc(NC4CCC(=O)NC4=O)cc3)CC2)C1 (centres unmarked) [Compound 171, 3-[4-[4-[[2-[[2-chloro-6-methoxy-4-(6-methyl-7-oxo-1H-pyrazolo[3,4-c]pyridin-4-yl)phenyl]methyl]-3,4-dihydro-1H-isoquinolin-5-yl]amino]-1-piperidyl]anilino]piperidine-2,6-dione] | < 100 |
| CN(C(=O)N1CCC(c2ccc(NC3CCC(=O)NC3=O)cc2F)CC1)C1CCN(C(=O)c2ccc(-c3cn(C)c(=O)c4ccccc34)cc2OC(F)(F)F)CC1 (centres unmarked) [Compound 139] | < 100 |

same assay, conditions: Table 2; 293T.166 cells, 2.0 hours; class symbols; read-out: HiBiT-Degradation 293T.166 BRD9 2.0 hours (DC50)

| DC50 [nM] | SMILES |
| --- | --- |
| 100 to 500 | COc1cc(-c2cn(C)c(=O)c(C)c2C)cc(Cl)c1CN1CCC(C2CCN(c3ccc(NC4CCC(=O)NC4=O)cc3F)CC2)C(F)(F)C1 (single isomer, unassigned) [Compound 258] |
| < 100 | COc1cc(-c2cn(C)c(=O)c3cnccc23)cc(Cl)c1CN1CCC(N2CCN(c3ccc(N(C)C4CCC(=O)NC4=O)cc3F)CC2)C(F)(F)C1 (centres unmarked) [Compound 254, 3-[4-[4-[1-[[2-chloro-6-methoxy-4-(2-methyl-1-oxo-2,7-naphthyridin-4-yl)phenyl]methyl]-3,3-difluoro-4-piperidyl]piperazin-1-yl]-3-fluoro-N-methyl-anilino]piperidine-2,6-dione] |
| < 100 | COc1cc(-c2cn(C)c(=O)c3cnccc23)cc(Cl)c1C(=O)N1CCC(F)(C2CCN(c3ccc(NC4CCC(=O)NC4=O)cc3F)CC2)CC1 (centres unmarked) [Compound 275] |
| < 100 | COc1cc(-c2cn(C)c(=O)c(C)c2C)cc(Cl)c1CN1CCC(C2CCN(c3ccc(NC4CCC(=O)NC4=O)cc3F)CC2)C(F)(F)C1 (single isomer, unassigned) [Compound 257] |
| < 100 | Cn1cc(-c2ccc(CN3CCC(N4CCN(c5ccc(NC6CCC(=O)NC6=O)nc5)CC4)C(F)(F)C3)c(OC(F)(F)F)c2)c2ccncc2c1=O (centres unmarked) [Compound 253, 3-[[5-[4-[3,3-difluoro-1-[[4-(2-methyl-1-oxo-2,7-naphthyridin-4-yl)-2-(trifluoromethoxy)phenyl]methyl]-4-piperidyl]piperazin-1-yl]-2-pyridyl]amino]piperidine-2,6-dione] |
